From PMC9873984, “Membrane cholesterol regulates inhibition and substrate transport by the glycine transporter, GlyT2” (Life Science Alliance, 2023)
Residue numbers refer to the chain shown, from its start.

Tests used:
[1] = molecular target: T1, GlyT2 Y430L mutant (Homo sapiens, UniProt Q9Y345, Y430L); test: Inhibitor concentration–responses on glycine transport currents, two-electrode voltage clamp; type: cell-based; parameters: expressed in transfected cells; host or cells: Xenopus laevis oocytes injected with mutant RNA (pOTV vector); conditions: for IC50: Y430L GlyT2 in Xenopus laevis oocytes
T1 sequence (Q9Y345 1-797 Y430L): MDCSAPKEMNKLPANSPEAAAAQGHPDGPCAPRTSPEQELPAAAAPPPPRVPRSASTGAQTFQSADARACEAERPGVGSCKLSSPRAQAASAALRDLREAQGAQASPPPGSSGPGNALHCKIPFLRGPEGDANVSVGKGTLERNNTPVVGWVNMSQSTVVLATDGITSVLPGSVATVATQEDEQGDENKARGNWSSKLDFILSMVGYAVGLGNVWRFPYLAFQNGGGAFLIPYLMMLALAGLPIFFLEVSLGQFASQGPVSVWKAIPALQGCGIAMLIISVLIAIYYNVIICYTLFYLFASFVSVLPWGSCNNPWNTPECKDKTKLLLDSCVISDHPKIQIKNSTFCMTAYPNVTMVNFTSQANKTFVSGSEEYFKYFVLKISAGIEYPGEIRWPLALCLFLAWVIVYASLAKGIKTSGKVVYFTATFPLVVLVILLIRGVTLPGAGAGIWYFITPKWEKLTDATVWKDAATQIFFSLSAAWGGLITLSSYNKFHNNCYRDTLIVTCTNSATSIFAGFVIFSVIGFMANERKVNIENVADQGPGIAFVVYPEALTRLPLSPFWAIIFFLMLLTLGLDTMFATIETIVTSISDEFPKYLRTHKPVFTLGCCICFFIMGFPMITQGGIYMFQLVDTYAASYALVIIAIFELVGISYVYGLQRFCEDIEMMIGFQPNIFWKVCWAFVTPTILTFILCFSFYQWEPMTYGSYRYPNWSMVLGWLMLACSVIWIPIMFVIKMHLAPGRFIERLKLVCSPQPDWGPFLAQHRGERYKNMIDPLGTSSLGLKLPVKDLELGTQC
Procedure: (§1) Because of the slowly reversible nature of the compounds tested, inhibitor concentration–responses were performed cumulatively. An EC50 concentration of glycine was applied until a stable transport current was reached. EC50 concentrations of glycine were used to produce reliable currents for each transporter, and as the inhibitors are non-competitive, application of varying glycine concentrations is unlikely to affect their activity. Increasing concentrations of inhibitors were co-applied with glycine with each concentration producing a distinct plateau before the subsequent concentration was applied. Inhibitor concentration–responses were limited to a maximum concentration of 3 µM to mitigate the risk of changes to the free drug concentration because of micelle formation. Currents after the plateau of each inhibitor concentration were normalized to the current produced by application of glycine alone and fit using the method of least squares: Y=Bottom+(Top−Bottom)/(1+10^[X−LogIC50]), where X is log [inhibitor], Y is current normalized to glycine in the absence of inhibitor, and Top and Bottom are the maximal and minimal plateaus, respectively. The method of least squares was constrained to have the bottom value >0 and the hill slope as −1, enabling the calculation of IC50 values and the extent of inhibition produced by the maximal concentration applied.
(§2) IC50 values are presented as the mean and 95% confidence interval, whereas inhibition values are presented as the mean ± SEM. Data sets are n ≥ 5 from two batches of oocytes.

[2] = molecular target: T2, GlyT2 F515W mutant (Homo sapiens, UniProt Q9Y345, F515W); test: as above; type: cell-based; parameters: expressed in transfected cells; host or cells: Xenopus laevis oocytes injected with mutant RNA (pOTV vector); conditions: for IC50: F515W GlyT2 in Xenopus laevis oocytes
T2 sequence (Q9Y345 1-797 F515W): T1 sequence (Q9Y345 1-797 Y430L) with L430Y, F515W
Procedure: as §1, §2

IC50 ([1]; 95% CI could not be fit) [nM] | Inhibition at 1 µM (column head 3 μM, footnote b) ([1]; Y430L, 1 µM) | Inhibition at 1 µM (column head 3 μM, footnote b) ([2]; F515W, 1 µM) | IC50 [1] [nM] | Inhibition at 3 μM ([1]; Y430L) [%] | IC50 [2] [nM] | Inhibition at 3 μM ([2]; F515W) [%] | IC50 ([1]; listed as OLLys) [nM] | Reduction of potency compared with WT ([1]; Y430L vs WT) | SMILES
1100 | 49.6 ± 2.9^b % | 57.6 ± 2.3^b % | – | – | – | – | – | – | CCCCCCCC/C=C\CCCCCCCC(=O)O[C@H](CC(=O)[O-])C[N+](C)(C)C [Oleoyl-L-Carnitine, oleoyl-L-carnitine]
– | – | – | 375 | 63.8 ± 2.6 | 400 | 86.7 ± 1.7 | – | – | CCCCCCCC/C=C\CCCCCCCC(=O)N[C@@H](CC(C)C)C(=O)O [Oleoyl-L-Leucine, oleoyl-L-leucine]
– | – | – | 863 | 69.7 ± 4.7 | 689 | 85.3 ± 6.4 | 860 | fourfold | CCCCCCCC/C=C\CCCCCCCC(=O)N[C@@H](CCCCN)C(=O)O [Oleoyl-L-Lysine, oleoyl-L-lysine]
– | – | – | 57 | 83.5 ± 3.2 | 128 | 82.0 ± 3.9 | – | – | CCCCCCCC/C=C\CCCCCCCC(=O)N[C@@H](Cc1c[nH]c2ccccc12)C(=O)O [Oleoyl-L-Tryptophan, oleoyl-L-tryptophan]
